Reference: US11376307B2, “Compositions and methods of treating cancer with glycomimetic peptides” (SUSAVION BIOSCIENCES, INC., priority 2018, dated 2022)
Positions of bridges follow the written chain, without caps; N, C: chain ends. Chains are numbered I, II in the order given.

Columns and labels:
[1] = tested on: monocytes in the peritoneal cavity; experiment: Response of peritoneal monocytes in RAG−/− mice; assay type: in vivo; settings: mice lacking B and T cells
Experimental: To determine whether the target(s) for svL4 is located on lymphocytes, with subsequent cross-talk signaling to achieve activation of monocytes, an experiment was performed in which svL4 was injected into RAG^−/− mice, which lack activity of rag, the recombination activation gene. The ability to perform recombination to generate antigen-specific antibodies by V(D)J recombination is required for B and T cell precursors to produce functional antigen receptors on their surface, and without a functional rag gene these cells undergo apoptosis.

[2] = tested on: 4T1 breast cancer-bearing mice; settings: 0.1 nmol/g svL4 s.c., 4 h
Experimental: When tumors reached a volume of at least 500 mm^3, animals were randomized into groups of 3 and dosed with either 0.1 or 1.0 nmol/g of svL4. At 4 h post dose, terminal blood was collected from 3 animals per group and prepared for serum. Sera were also collected from healthy Balb/c mice by the same procedure. Changes in the levels of cytokines/chemokines in sera from breast cancer-bearing and healthy mice were analyzed with the mouse L-308 membrane array by RayBiotech, Inc. (Norcross, Ga.) (Table 2).
Markers of lymphocyte and monocyte activation in response to 0.1 nmol/g svL4 in Balb/c mice bearing breast tumors are compared with healthy mice. Sera from three animals were pooled for analysis with an array of 308 soluble factors.
After the tumors had grown over a period of 10 to 12 days to a size of −500 mm^3, svL4 was injected subcutaneously at doses of 0.1 or 1.0 nmol/g. Sera were prepared 4 h after injection and analyzed with an array of 308 cytokines/chemokines.

human ASGPR-1 = target: T1, human ASGPR-1 (Homo sapiens, UniProt P07306); experiment: Inhibition of binding of multivalent GalNAc-PAA; settings: about 200 pmoles biotinylated GalNAc-PAA, increasing peptide
T1 construct: The extracellular domains of receptors, which were fused with the Fc domain of immunoglobulin IgG; purchased R&D Systems
T1 sequence (P07306 62-291 limits assumed): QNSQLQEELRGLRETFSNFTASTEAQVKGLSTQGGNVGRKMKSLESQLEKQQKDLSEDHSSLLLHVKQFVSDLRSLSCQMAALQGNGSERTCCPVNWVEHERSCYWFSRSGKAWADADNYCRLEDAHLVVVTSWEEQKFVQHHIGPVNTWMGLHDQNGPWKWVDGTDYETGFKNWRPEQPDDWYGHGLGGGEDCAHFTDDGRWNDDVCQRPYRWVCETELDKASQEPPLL
Experimental: FIGS. 3A-3D. sv6D as a mimetic of GalNAc. (FIG. 3A) Inhibition by sv6D of binding of multivalent GalNAc-PAA (GlycoTech Corp., Frederick, Md.) to recombinant rat CLEC10A and human ASGPR-1. The reaction mixture included approximately 200 pmoles of biotinylated GalNc-PAA and increasing concentrations of peptide. The figure includes average values from 3 independent experiments. (FIG. 3B) Biotinylated sv6D or GalNAc-PAA were incubated with rabbit antiserum raised against the 6D sequence (NQHTPR) (SEQ ID NO:1) conjugated to keyhole limpet hemocyanin (KLH). Binding was detected with streptavidin-peroxidase conjugate. Similar data were obtained in 2 experiments. (FIG. 3C) Inhibition by EGTA of binding of sv6D (pattern) or svL4 (solid) to CLEC10A and ASGPR-1, respectively. EGTA (1 mM) was added to the final concentrations indicated to assays. Retention of bound CLEC10A was determined by incubation with biotinylated anti-CLEC10A (goat IgG, R&D Systems) and detection with streptavidin-peroxidase conjugate (light grey circle). Similar data were obtained in 3 experiments. (FIG. 3D) Binding of svL4 and sv6D to human recombinant CLEC10A and ASGPR-1 as a function of concentration of peptide in the assay. The figure is representative of 4 separate assays.
To further determine whether sv6D interacts with the actual sugar binding site, the ability of sv6D to compete with GalNAc-PAA for binding was assayed.

[3] = tested on: human monocyte-derived DCs co-cultured with CD3+ T cells; experiment: Allogenic mixed leukocyte reaction, IFN-γ release; assay type: cell-based
Experimental: FIGS. 5A-5B. Mixed leukocyte reaction. An allogenic mixture of 5×10^3 human monocyte-derived immature dendritic cells and 1×10^5 negatively selected CD3^+ T cells were incubated with various concentrations of sv6D. (FIG. 5A) Effect of concentration of sv6D in the medium on release of IFN-γ after 5 days of culture. […] (FIG. 5B) The time course of the appearance of IFN-γ in the medium of cultures incubated with 10 nM sv6D in (FIG. 5A) as compared with control incubations with PBS.
Binding of a peptide to CLEC10A expressed by DCs is expected to stimulate maturation and potential activation of T cells. This hypothesis was tested by an experiment in which human monocyte-derived DCs were co-cultured with T cells. Expression of CLEC10A (CD301) by the DCs was established by flow cytometry. sv6D was added to the medium at various concentrations, and IFN-γ production by T cells was assayed. […] Significant release of IFN-γ occurred after 3 days of incubation (FIG. 5B), a time required for DC maturation.

[4] = tested on: ID8 ovarian cancer cell line; experiment: Murine model of ovarian cancer, sv6D and anti-PD-1; assay type: in vivo, C57BL/6 mice
Experimental: FIGS. 9A-9B. Combination study of sv6D and anti-PD-1. (FIG. 9A) The design of the experiment and extension of survival of C57BL/6 female mice implanted with ovarian cancer cell line ID8 and treatments with anti-PD-1 and sv6D. Anti-PD-1 (rat anti-mouse, clone 29F.1A12) was administered intraperitoneally every other day, 200 μg protein per dose, between day 41 and 49 (white bars). sv6D was administered subcutaneously every other day at 0.1 nmol/g, starting on day 36, 51 or 87 (grey bars). […] (FIG. 9B) Kaplan-Meier survival curves of mice treated with anti-PD-1 and/or sv6D. […] For group 3, the Mantel-Cox log-rank test p=0.003 indicates the significance between treatment with the combination and antibody alone. Anti-PD-1, square; sv6D, dark triangle; anti-PD-1 followed by sv6D (Group 3 in FIG. 9A), light triangle; PBS, circle.
We tested whether sv6D would extend effectiveness of anti-PD-1. Five doses of anti-PD-1 (200 μg in PBS) were injected intraperitoneally on alternate days between days 41 and 49. sv6D was injected subcutaneously immediately after the treatment with anti-PD-1 and continued on alternate days to the end of the study (FIG. 9A, Group 3).

[5] = tested on: ID8 ovarian cancer cell line; experiment: Murine model of ovarian cancer, sv6D and paclitaxel
Experimental: Combination study of sv6D and paclitaxel. (FIG. 8A) Female C57BL/6 mice were implanted with ID8 ovarian cancer cell line. […] Body weights of mice are shown as measured on day 58, after two weeks of alternate-day subcutaneous treatment with sv6D (0.1 nmol/g) or 3 intraperitoneal doses (days 45, 47 and 49) of 18 μg/g paclitaxel in cremophor. […] (FIG. 8B) Alternate-day injections of sv6D were initiated on day 50 with peptide alone or on day 100 to mice that were previously treated with paclitaxel between day 45 and 49. […] (FIG. 8C) Kaplan-Meier survival curves for mice treated with paclitaxel, sv6D or a combination of the two in which alternate-day subcutaneous injections of sv6D was started 50 days after paclitaxel treatment.
Cells of an ovarian epithelial cancer line, ID8 [110], were implanted into the peritoneal cavity of female C57BL/6 mice at a dose of 6×10^6 cells. All animals were weighed at least weekly throughout these studies. Accumulation of ascites was monitored by increase in body weight, and animals were euthanized when end-stage behavior was expressed. […] Kaplan-Meier survival curves were analyzed by the Mantel-Cox log-rank test.
A murine ovarian cancer cell line (ID8) was implanted into the peritoneal cavity of C57BL/6 female mice on day 0. […] Progression of the cancer was monitored by body weight of animals as an indication of ascites accumulation.

[6] = High = control value negligible or low

In the case of “I: H-VQATQSNQHTPRGGGSKK-NH2 / II: H-VQATQSNQHTPRGGGSK / III: H-VQATQSNQHTPRGGGS / IV: H-VQATQSNQHTPRGGGS (amide I:17-IV:C, I:18-II:C, II:17-III:C) [svL4]”, the “Response of peritoneal monocytes” value [1] is reported as “essentially the same as that in C57BL/6 mice”, the “Ratio of level of IFN-γ in sera (treated vs. untreated)” value [2, 6] is reported as “High” and the “Ratio of level of IL-17 in sera (treated vs. untreated)” value [2, 6] is reported as “High”. For the same substance, the “Ratio of level of IL-21 in sera (treated vs. untreated)” value [2, 6] was “High”, the “Ratio of level of IL-23 in sera (treated vs. untreated)” value [2, 6] was “High” and the “Ratio of level of IL-1α in sera (treated vs. untreated)” value ([2]; pooled sera of 3) was 3. The “Ratio of level of IL-2 in sera (treated vs. untreated)” value ([2]; pooled sera of 3) was 56, the “Ratio of level of IL-12p70 in sera (treated vs. untreated)” value ([2]; pooled sera of 3) was 3 and the “Ratio of level of IL-27 in sera (treated vs. untreated)” value ([2]; pooled sera of 3) was 4.5. The “Ratio of level of IL-28 in sera (treated vs. untreated)” value ([2]; pooled sera of 3) was 4.3, the “Ratio of level of IL-31 in sera (treated vs. untreated)” value ([2]; pooled sera of 3) was 3.5 and the “Ratio of level of Lymphotoxin-α in sera (treated vs. untreated)” value ([2]; pooled sera of 3) was 12.5. The “Ratio of level of TNFα in sera (treated vs. untreated)” value ([2]; pooled sera of 3) was 45 and the “Ratio of level of sHVEM in sera (treated vs. untreated)” value ([2]; pooled sera of 3) was 2.
In the case of “I: H-NQHTPRGGGSKK-NH2 / II: H-NQHTPRGGGSK / III: H-NQHTPRGGGS / IV: H-NQHTPRGGGS (amide I:11-IV:C, I:12-II:C, II:11-III:C) [sv6D]”, the “Inhibition of binding of GalNAc-PAA to ASGPR-1” value (human ASGPR-1) is reported as “inhibited”, the “Incubation time after which significant release of IFN-γ occurred” value ([3]; 10 nM sv6D) is reported as 3 days and the “Concentration giving maximal IFN-γ production / optimal cellular response” value ([3]; 5 days of culture) is reported as 10 nM. For the same substance, the Ascites formation ([4]; Group 5: sv6D from day 87 after anti-PD-1) was “essentially complete suppression of ascites formation”, the Survival ([4]; Group 6: hiatus of one week after a week of sv6D) was “survived only slightly longer than animals treated with PBS” and the Survival ([4]; combination of anti-PD-1 with sv6D (Group 4)) was “maximal survival”. The Survival ([4]; single agent: anti-PD-1 200 μg i.p. x5 (Group 1), sv6D 0.1 nmol/g s.c. alternate days (Group 7)) was “maximal survival”, the Accumulation of ascites ([4]; sv6D alone vs. anti-PD-1) was “inhibited accumulation of ascites to a greater extent than anti-PD-1” and the Median survival ([5]; paclitaxel days 45-49 followed by sv6D from day 100) was 169 days. For the same substance, the Overall survival time ([5]; paclitaxel followed by sv6D) was “doubled”, the Median survival ([5]; single agent, sv6D 0.1 nmol/g, control median end-stage day 122) was “approximately 141 days” and the “Weight gain at day 120” value ([5]; sv6D alone initiated at day 45) was “no significant weight gain for half the animals”. For the same substance, the “Further increase in body weight over 3 weeks” value ([5]; sv6D alternate days from day 100, 50 days after paclitaxel) was “completely suppressed further increases in weight” and the “Body weight (ascites accumulation) after two weeks of treatment” value ([5]; treatment from day 45, sv6D 0.1 nmol/g s.c. alternate days, paclitaxel 18 μg/g i.p. x3) was “had not significantly increased”.
